This is an account of results in patent US11213543B2, “Human gastrointestinal microbiome modulating composition and methods of use” (priority 2011, dated 2022).

Entries after “also recorded” stand apart in the source; their conditions may differ.

Details of series [1]: key: ↑indicates an increase is reported; ↓ indicates that a decrease is reported. The following applies: reported in the references of Table 6, cited from earlier work.
The conditions of series [2]: metformin without FORMULA A.
Description: They were started on metformin 500 mg twice a day and was instructed to measure their fasting blood sugar on a daily basis. Over the course of 7 days they were instructed to increase metformin to 1000 mg twice a day.
For series [3] the following is noted: cited from earlier work.

Take β-Glucan: in series [1], the “Function: GLP-1” value is “↑”, the “Function: LDL chol” value is on record as “↓”, the “Function: PYY” value is given as “↑” and the “Function: ghrelin” value is “↓”. Moreover, in series [1], the “Function: hunger” value is reported as “↓” and the “Function: satiety” value is reported as “↑”.

As for Inulin, the “Function: TG” value in series [1] (TG is triglyceride) is “↓”. Also, in series [1], the “Function: GLP-1” value was “↑”, the “Function: PYY” value is listed as “↑”, the “Function: ghrelin” value is on record as “↓” and the “Function: satiety” value was “↑”.

Consider `CN(C)C(=N)N=C(N)N` [metformin], for which the “stools / diarrhea on metformin” value in series [2] is on record as “persistent watery stools; also recorded: Diarrhea”. For the same compound, the weight loss in series [3] (approximate) was 2 to 3 kg. In series [3] (compared to only 6% of diabetic patients not taking metformin), the “incidence of diarrhea in diabetic patients taking the drug” value was 20%.
